How the values were obtained:
[1] = target: 5-hydroxytryptamine receptor 2B (Homo sapiens, UniProt P41595); type: functional, cell-based
Cannabinoid receptor 1 = Cannabinoid receptor 1 (Homo sapiens, UniProt P21554); type: functional, cell-based
[2] = target: T1, 5-hydroxytryptamine receptor 2C (Homo sapiens, UniProt P28335)
T1 sequence (P28335 whole entry): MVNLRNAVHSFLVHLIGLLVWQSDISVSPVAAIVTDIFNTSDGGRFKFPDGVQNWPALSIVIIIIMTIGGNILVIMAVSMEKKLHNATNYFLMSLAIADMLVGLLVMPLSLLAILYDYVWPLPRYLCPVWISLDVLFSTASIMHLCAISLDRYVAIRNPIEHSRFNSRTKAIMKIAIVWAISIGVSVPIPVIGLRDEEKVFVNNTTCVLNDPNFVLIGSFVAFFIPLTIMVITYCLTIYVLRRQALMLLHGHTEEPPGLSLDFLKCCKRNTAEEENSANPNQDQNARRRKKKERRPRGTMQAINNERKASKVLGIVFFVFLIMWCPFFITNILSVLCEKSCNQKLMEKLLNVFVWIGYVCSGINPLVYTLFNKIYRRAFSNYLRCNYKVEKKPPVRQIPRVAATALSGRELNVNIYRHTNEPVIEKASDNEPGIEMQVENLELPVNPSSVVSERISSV

[3] = target: T2, 5-hydroxytryptamine receptor 1A (Homo sapiens, UniProt P08908); type: functional, cell-based
T2 sequence (P08908 whole entry): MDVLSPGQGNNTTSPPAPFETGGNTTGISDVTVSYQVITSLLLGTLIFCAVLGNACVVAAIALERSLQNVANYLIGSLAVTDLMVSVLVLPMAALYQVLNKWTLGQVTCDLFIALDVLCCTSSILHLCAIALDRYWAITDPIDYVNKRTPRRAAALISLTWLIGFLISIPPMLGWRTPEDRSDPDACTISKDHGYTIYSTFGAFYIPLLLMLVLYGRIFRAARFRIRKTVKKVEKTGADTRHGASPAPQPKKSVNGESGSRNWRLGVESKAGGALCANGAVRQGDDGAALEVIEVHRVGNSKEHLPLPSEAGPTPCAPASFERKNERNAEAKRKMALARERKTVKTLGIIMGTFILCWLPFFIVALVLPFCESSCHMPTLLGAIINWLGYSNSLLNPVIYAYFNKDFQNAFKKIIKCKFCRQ

[4] = target: Voltage-dependent L-type calcium channel subunit alpha-1C (Rattus norvegicus, UniProt P22002); type: functional
[5] = target: Kappa-type opioid receptor (Homo sapiens, UniProt P41145)
[6] = target: Sodium-dependent noradrenaline transporter (Homo sapiens, UniProt P23975)
[7] = target: T3, Gastrin/cholecystokinin type B receptor (Homo sapiens, UniProt P32239)
T3 sequence (P32239 whole entry): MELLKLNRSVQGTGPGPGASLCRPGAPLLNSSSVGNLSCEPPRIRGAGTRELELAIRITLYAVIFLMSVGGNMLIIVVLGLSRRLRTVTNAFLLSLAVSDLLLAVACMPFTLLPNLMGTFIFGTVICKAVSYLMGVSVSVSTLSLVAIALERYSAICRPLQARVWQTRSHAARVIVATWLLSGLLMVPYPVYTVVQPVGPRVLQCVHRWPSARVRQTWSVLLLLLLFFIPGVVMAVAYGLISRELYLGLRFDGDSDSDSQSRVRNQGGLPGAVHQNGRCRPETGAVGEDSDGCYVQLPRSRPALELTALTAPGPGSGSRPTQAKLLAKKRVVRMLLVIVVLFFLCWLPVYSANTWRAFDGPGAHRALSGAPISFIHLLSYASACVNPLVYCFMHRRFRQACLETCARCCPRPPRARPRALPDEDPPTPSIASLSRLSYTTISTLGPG

[8] = target: T2, 5-hydroxytryptamine receptor 1A; type: functional, cell-based; remark: listed apart in the source
Histamine H2 receptor = Histamine H2 receptor (Homo sapiens, UniProt P25021); type: functional, cell-based
Melanocortin receptor 3 = Melanocortin receptor 3 (Homo sapiens, UniProt P41968)
[9] = target: cGMP-inhibited 3',5'-cyclic phosphodiesterase 3A (Homo sapiens, UniProt Q14432); type: functional
Also: assay procedure not described here.

Sequence of Cannabinoid receptor 1 (P21554 whole entry): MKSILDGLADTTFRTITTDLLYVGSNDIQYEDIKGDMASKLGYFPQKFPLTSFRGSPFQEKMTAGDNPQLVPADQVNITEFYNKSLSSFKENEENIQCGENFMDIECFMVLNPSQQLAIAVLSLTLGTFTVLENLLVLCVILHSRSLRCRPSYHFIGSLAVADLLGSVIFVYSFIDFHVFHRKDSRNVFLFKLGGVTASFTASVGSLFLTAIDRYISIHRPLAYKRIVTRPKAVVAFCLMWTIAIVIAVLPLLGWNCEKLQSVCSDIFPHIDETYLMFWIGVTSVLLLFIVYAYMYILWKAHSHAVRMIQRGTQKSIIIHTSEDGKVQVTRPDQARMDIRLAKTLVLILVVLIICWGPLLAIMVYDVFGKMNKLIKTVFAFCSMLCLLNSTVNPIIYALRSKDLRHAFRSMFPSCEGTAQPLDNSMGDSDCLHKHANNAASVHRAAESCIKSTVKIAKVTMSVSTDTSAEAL
Sequence of Voltage-dependent L-type calcium channel subunit alpha-1C (P22002 whole entry): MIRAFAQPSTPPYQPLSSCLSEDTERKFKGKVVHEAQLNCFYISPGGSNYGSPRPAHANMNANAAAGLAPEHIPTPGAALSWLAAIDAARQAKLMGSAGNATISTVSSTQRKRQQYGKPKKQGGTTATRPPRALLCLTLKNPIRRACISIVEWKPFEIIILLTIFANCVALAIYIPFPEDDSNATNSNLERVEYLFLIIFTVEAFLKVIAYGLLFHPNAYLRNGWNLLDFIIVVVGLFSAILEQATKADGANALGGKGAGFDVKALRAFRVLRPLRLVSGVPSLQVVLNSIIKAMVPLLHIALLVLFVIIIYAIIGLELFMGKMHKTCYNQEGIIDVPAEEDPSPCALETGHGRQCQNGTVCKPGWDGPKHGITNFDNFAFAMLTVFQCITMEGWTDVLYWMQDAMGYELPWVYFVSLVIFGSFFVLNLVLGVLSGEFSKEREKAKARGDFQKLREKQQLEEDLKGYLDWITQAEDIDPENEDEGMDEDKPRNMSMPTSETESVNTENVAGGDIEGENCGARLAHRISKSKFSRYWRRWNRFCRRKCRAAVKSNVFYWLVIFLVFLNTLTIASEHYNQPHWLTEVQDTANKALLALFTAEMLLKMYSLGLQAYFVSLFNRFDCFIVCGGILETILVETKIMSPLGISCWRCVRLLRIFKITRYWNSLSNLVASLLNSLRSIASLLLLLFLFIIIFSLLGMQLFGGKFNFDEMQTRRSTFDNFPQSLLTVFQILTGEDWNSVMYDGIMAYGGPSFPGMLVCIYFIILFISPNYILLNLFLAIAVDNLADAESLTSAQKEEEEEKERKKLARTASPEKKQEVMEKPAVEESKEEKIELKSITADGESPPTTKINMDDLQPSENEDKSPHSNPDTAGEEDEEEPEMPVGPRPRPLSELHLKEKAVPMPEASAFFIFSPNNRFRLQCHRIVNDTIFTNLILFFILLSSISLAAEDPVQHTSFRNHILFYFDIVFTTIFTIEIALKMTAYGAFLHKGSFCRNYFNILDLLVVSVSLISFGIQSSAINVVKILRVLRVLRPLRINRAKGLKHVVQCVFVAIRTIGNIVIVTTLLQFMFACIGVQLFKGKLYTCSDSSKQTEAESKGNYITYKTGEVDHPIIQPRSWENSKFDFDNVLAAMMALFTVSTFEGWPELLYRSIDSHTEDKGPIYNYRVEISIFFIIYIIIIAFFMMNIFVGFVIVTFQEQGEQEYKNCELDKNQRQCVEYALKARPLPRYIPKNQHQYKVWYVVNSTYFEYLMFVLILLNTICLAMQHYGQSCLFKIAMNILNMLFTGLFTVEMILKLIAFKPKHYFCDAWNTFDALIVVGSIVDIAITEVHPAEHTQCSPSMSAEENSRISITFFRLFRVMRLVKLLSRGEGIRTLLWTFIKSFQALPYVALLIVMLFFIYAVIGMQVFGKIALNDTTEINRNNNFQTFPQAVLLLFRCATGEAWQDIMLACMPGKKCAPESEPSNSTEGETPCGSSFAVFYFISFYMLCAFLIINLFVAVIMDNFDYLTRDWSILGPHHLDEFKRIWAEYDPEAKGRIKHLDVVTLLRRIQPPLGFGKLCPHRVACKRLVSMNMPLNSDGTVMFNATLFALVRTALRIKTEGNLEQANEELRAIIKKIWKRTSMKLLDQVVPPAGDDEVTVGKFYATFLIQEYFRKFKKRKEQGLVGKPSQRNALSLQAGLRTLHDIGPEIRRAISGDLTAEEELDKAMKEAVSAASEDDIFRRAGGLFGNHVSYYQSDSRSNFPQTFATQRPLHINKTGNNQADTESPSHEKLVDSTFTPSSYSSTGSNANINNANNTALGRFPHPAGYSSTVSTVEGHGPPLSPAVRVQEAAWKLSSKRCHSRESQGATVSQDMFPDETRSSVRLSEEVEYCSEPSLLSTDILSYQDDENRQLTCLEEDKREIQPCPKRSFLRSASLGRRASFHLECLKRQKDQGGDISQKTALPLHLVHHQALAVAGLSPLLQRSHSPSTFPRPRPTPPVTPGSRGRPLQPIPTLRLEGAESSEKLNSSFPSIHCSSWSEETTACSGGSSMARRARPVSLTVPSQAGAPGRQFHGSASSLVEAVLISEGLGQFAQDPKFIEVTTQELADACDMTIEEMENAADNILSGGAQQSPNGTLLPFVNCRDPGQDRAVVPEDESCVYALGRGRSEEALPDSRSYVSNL
Sequence of Kappa-type opioid receptor (P41145 whole entry): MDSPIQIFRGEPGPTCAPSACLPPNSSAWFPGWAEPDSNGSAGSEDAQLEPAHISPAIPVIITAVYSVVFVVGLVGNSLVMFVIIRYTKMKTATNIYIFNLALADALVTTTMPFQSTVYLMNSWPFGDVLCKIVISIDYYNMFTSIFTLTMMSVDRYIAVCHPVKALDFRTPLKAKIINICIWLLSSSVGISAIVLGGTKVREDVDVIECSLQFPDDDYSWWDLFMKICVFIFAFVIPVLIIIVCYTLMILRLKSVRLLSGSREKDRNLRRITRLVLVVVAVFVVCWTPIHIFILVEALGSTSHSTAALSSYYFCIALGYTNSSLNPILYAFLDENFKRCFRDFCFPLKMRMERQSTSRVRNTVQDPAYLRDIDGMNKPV
Sequence of cGMP-inhibited 3',5'-cyclic phosphodiesterase 3A (Q14432 whole entry): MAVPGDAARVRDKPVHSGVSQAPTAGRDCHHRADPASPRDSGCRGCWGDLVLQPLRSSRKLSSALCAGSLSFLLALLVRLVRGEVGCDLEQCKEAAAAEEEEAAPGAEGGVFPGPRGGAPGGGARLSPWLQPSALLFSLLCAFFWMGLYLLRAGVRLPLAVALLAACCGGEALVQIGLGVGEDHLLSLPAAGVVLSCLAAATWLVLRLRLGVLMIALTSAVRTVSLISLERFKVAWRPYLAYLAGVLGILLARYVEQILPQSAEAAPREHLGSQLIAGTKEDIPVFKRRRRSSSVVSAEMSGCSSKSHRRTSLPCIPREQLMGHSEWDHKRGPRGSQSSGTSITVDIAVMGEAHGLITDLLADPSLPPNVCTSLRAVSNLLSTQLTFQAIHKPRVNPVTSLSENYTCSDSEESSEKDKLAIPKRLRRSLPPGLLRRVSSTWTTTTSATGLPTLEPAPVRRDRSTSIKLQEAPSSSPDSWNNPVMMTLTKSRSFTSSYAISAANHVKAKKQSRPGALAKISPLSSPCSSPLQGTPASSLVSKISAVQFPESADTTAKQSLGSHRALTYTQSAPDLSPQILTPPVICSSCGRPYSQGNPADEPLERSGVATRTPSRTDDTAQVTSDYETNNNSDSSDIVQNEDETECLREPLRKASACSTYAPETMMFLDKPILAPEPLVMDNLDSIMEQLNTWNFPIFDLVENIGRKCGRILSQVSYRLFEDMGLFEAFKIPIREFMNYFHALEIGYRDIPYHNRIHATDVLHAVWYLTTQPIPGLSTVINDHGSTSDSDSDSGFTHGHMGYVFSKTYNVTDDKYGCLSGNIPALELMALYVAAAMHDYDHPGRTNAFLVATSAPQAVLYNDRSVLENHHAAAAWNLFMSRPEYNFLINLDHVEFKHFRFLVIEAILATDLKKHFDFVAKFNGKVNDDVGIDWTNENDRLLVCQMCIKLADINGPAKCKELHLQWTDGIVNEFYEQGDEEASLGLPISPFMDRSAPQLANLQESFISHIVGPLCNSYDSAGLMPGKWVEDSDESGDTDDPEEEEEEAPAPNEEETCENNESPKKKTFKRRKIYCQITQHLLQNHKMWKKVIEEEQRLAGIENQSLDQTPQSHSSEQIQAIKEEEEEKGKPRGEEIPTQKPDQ
Sequence of 5-hydroxytryptamine receptor 2B (P41595 whole entry): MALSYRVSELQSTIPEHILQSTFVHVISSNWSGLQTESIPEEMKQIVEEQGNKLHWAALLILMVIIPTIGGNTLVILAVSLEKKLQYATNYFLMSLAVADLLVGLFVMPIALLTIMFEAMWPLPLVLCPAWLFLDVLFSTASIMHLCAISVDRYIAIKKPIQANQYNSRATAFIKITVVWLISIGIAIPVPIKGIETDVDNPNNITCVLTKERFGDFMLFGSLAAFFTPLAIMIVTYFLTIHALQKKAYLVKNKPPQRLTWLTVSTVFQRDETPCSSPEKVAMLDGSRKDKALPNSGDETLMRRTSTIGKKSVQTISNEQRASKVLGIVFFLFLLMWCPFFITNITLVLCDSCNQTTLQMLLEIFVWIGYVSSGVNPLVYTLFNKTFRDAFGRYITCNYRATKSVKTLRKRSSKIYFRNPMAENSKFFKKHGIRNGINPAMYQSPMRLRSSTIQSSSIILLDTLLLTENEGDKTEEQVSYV
Sequence of Histamine H2 receptor (P25021 whole entry): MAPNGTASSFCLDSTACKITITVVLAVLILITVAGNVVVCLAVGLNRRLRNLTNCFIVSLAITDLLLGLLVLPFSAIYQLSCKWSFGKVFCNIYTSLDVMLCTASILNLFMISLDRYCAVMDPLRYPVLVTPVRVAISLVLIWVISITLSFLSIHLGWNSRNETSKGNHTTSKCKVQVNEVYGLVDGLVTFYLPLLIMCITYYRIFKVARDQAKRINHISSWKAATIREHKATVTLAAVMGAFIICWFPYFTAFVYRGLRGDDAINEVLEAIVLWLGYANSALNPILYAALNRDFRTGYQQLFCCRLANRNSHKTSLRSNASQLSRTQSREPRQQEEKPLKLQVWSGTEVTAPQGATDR

CC(/C=C1\SC(=S)N(CC(=O)O)C1=O)=C\c1ccccc1
AC50 [1]: > 30 µM
AC50 (Cannabinoid receptor 1): > 30 µM
AC50 [2]: 6.4 µM
AC50 [3]: > 30 µM
AC50 [4]: > 30 µM
AC50 [5]: 28 µM
AC50 [6]: 15 µM
AC50 [7]: > 30 µM
AC50 [8]: 21 µM
AC50 (Histamine H2 receptor): > 30 µM
AC50 (Melanocortin receptor 3): > 30 µM
AC50 [9]: > 30 µM

CC1(C)S[C@@H]2[C@H](NC(=O)[C@H](N)c3ccc(O)cc3)C(=O)N2[C@H]1C(=O)O [AMOXICILLIN]
AC50 [1]: > 30 µM
AC50 [2]: > 30 µM
AC50 [3]: > 30 µM
AC50 [4]: > 30 µM
AC50 [5]: > 30 µM
AC50 [6]: > 30 µM
AC50 [7]: > 30 µM
AC50 [8]: > 10 µM
AC50 (Histamine H2 receptor): > 30 µM
AC50 (Melanocortin receptor 3): > 30 µM
AC50 [9]: > 30 µM

CNCC[C@@H](Oc1ccccc1C)c1ccccc1 [ATOMOXETINE]
AC50 [1]: 25 µM
AC50 (Cannabinoid receptor 1): > 30 µM
AC50 [4]: > 30 µM
AC50 [5]: 1.8 µM
AC50 [7]: > 30 µM
AC50 (Histamine H2 receptor): > 30 µM
AC50 (Melanocortin receptor 3): > 30 µM
AC50 [9]: > 30 µM

CCc1oc2ccccc2c1C(=O)c1cc(Br)c(O)c(Br)c1 [BENZBROMARONE]
AC50 [1]: 1.53 µM
AC50 (Cannabinoid receptor 1): > 30 µM
AC50 [2]: > 30 µM
AC50 [3]: > 30 µM
AC50 [4]: > 10 µM
AC50 [5]: > 10 µM
AC50 [6]: > 30 µM
AC50 [7]: > 30 µM
AC50 [8]: > 30 µM
AC50 (Histamine H2 receptor): > 10 µM
AC50 (Melanocortin receptor 3): > 30 µM
AC50 [9]: 9.4 µM

Clc1cccc(Cl)c1N=C1NCCN1 [CLONIDINE]
AC50 [1]: > 10 µM
AC50 (Cannabinoid receptor 1): > 30 µM
AC50 [2]: > 30 µM
AC50 [3]: > 10 µM
AC50 [4]: > 10 µM
AC50 [6]: > 10 µM
AC50 [7]: > 30 µM
AC50 [8]: > 10 µM
AC50 (Histamine H2 receptor): 0.39 µM
AC50 (Melanocortin receptor 3): > 30 µM
AC50 [9]: > 30 µM

COC(=O)[C@H](c1ccccc1Cl)N1CCc2sccc2C1 [CLOPIDOGREL]
AC50 [1]: 2 µM
AC50 (Cannabinoid receptor 1): > 30 µM
AC50 [2]: > 30 µM
AC50 [3]: > 30 µM
AC50 [4]: > 30 µM
AC50 [5]: 14.9 µM
AC50 [6]: > 30 µM
AC50 [7]: > 30 µM
AC50 [8]: > 30 µM
AC50 (Histamine H2 receptor): > 30 µM
AC50 (Melanocortin receptor 3): > 30 µM
AC50 [9]: > 30 µM

CN1C[C@H](C(=O)N[C@]2(C)O[C@@]3(O)[C@@H]4CCCN4C(=O)[C@H](Cc4ccccc4)N3C2=O)C[C@@H]2c3cccc4[nH]cc(c34)C[C@H]21 [DIHYDROERGOTAMINE]
AC50 (Cannabinoid receptor 1): > 30 µM
AC50 [2]: 0.5 µM
AC50 [3]: 0.14 µM
AC50 [4]: > 10 µM
AC50 [5]: > 10 µM
AC50 [6]: > 30 µM
AC50 [7]: > 30 µM
AC50 (Histamine H2 receptor): 0.62 µM
AC50 (Melanocortin receptor 3): > 30 µM
AC50 [9]: > 30 µM

CC1(C)O[C@@H]2C[C@H]3[C@@H]4C[C@H](F)C5=CC(=O)C=C[C@]5(C)[C@H]4[C@@H](O)C[C@]3(C)[C@]2(C(=O)CO)O1 [FLUNISOLIDE]
AC50 [1]: > 30 µM
AC50 (Cannabinoid receptor 1): > 30 µM
AC50 [2]: > 30 µM
AC50 [3]: > 30 µM
AC50 [6]: > 30 µM
AC50 [8]: 0.56 µM
AC50 (Melanocortin receptor 3): > 30 µM
AC50 [9]: > 30 µM

Nc1nc(O)c2ncn(COC(CO)CO)c2n1 [GANCICLOVIR]
AC50 [1]: > 30 µM
AC50 (Cannabinoid receptor 1): > 30 µM
AC50 [2]: > 30 µM
AC50 [3]: > 30 µM
AC50 [4]: > 30 µM
AC50 [5]: > 30 µM
AC50 [6]: > 30 µM
AC50 [7]: > 30 µM
AC50 [8]: > 30 µM
AC50 (Histamine H2 receptor): > 30 µM
AC50 (Melanocortin receptor 3): > 30 µM
AC50 [9]: > 30 µM

Cc1cnc(NC(=O)C2=C(O)c3ccccc3S(=O)(=O)N2C)s1 [MELOXICAM]
AC50 [1]: > 10 µM
AC50 (Cannabinoid receptor 1): > 30 µM
AC50 [2]: > 10 µM
AC50 [3]: > 10 µM
AC50 [4]: > 10 µM
AC50 [5]: > 10 µM
AC50 [6]: > 10 µM
AC50 [7]: > 30 µM
AC50 [8]: > 10 µM
AC50 (Histamine H2 receptor): > 10 µM
AC50 (Melanocortin receptor 3): > 30 µM
AC50 [9]: > 10 µM

CC[C@@H](CO)NC(=O)[C@@H]1C=C2c3cccc4[nH]cc(c34)C[C@H]2N(C)C1 [METHYLERGONOVINE]
AC50 (Cannabinoid receptor 1): > 30 µM
AC50 [2]: 0.12 µM
AC50 [3]: 0.0144 µM
AC50 [5]: > 30 µM
AC50 [6]: > 30 µM
AC50 [7]: > 30 µM
AC50 (Histamine H2 receptor): 0.058 µM
AC50 (Melanocortin receptor 3): > 30 µM
AC50 [9]: > 30 µM

CNCCC=C1c2ccccc2CCc2ccccc21 [NORTRIPTYLINE]
AC50 [1]: 0.73 µM
AC50 [3]: > 30 µM
AC50 [4]: > 30 µM
AC50 [7]: > 30 µM
AC50 [8]: 8 µM
AC50 (Histamine H2 receptor): > 30 µM
AC50 (Melanocortin receptor 3): 11 µM

COc1ccnc(C[S+]([O-])c2nc3ccc(OC(F)F)cc3[nH]2)c1OC (stereo not drawn) [PANTOPRAZOLE]
AC50 [1]: > 10 µM
AC50 (Cannabinoid receptor 1): > 30 µM
AC50 [2]: > 30 µM
AC50 [3]: > 10 µM
AC50 [4]: > 10 µM
AC50 [5]: > 10 µM
AC50 [6]: > 10 µM
AC50 [7]: > 30 µM
AC50 [8]: > 10 µM
AC50 (Histamine H2 receptor): > 10 µM
AC50 (Melanocortin receptor 3): > 30 µM
AC50 [9]: > 30 µM

COc1ccc(Cc2nccc3cc(OC)c(OC)cc23)cc1OC [PAPAVERINE]
AC50 [1]: > 30 µM
AC50 (Cannabinoid receptor 1): > 30 µM
AC50 [2]: > 30 µM
AC50 [3]: > 30 µM
AC50 [4]: > 30 µM
AC50 [5]: > 30 µM
AC50 [6]: > 30 µM
AC50 [7]: > 30 µM
AC50 (Histamine H2 receptor): > 30 µM
AC50 (Melanocortin receptor 3): > 30 µM

O=C1NC(=O)C(c2ccccc2)(c2ccccc2)N1 [PHENYTOIN]
AC50 [1]: > 30 µM
AC50 (Cannabinoid receptor 1): > 30 µM
AC50 [2]: > 30 µM
AC50 [3]: > 30 µM
AC50 [4]: > 10 µM
AC50 [5]: > 10 µM
AC50 [6]: > 30 µM
AC50 [7]: > 30 µM
AC50 [8]: > 30 µM
AC50 (Histamine H2 receptor): > 10 µM
AC50 (Melanocortin receptor 3): > 30 µM
AC50 [9]: > 30 µM

NC(=O)c1ncn([C@@H]2O[C@H](CO)[C@@H](O)[C@H]2O)n1 [RIBAVIRIN]
AC50 [1]: > 10 µM
AC50 (Cannabinoid receptor 1): > 30 µM
AC50 [2]: > 30 µM
AC50 [3]: > 10 µM
AC50 [4]: > 10 µM
AC50 [5]: > 10 µM
AC50 [6]: > 10 µM
AC50 (Histamine H2 receptor): > 10 µM
AC50 (Melanocortin receptor 3): > 10 µM
AC50 [9]: > 30 µM

CC[C@H]1OC(=O)[C@H](C)[C@@H](O[C@H]2C[C@@](C)(OC)[C@@H](O)[C@H](C)O2)[C@H](C)[C@@H](O[C@@H]2O[C@H](C)C[C@H](N(C)C)[C@H]2O)[C@](C)(O)C[C@@H](C)/C(=N\OCOCCOC)[C@H](C)[C@@H](O)[C@]1(C)O [ROXITHROMYCIN]
AC50 [1]: > 30 µM
AC50 (Cannabinoid receptor 1): > 30 µM
AC50 [2]: > 30 µM
AC50 [3]: > 30 µM
AC50 [6]: > 30 µM
AC50 [8]: > 30 µM
AC50 (Melanocortin receptor 3): > 30 µM
AC50 [9]: > 30 µM

CC(=O)S[C@@H]1CC2=CC(=O)CC[C@]2(C)[C@H]2CC[C@@]3(C)[C@@H](CC[C@@]34CCC(=O)O4)[C@H]12 [SPIRONOLACTONE]
AC50 [1]: 29 µM
AC50 (Cannabinoid receptor 1): > 30 µM
AC50 [2]: > 30 µM
AC50 [3]: > 30 µM
AC50 [4]: > 10 µM
AC50 [5]: 14.8 µM
AC50 [6]: > 30 µM
AC50 [7]: > 30 µM
AC50 [8]: > 30 µM
AC50 (Histamine H2 receptor): > 10 µM
AC50 (Melanocortin receptor 3): > 30 µM
AC50 [9]: > 30 µM

From ChEMBL document CHEMBL5291721, “A preclinical secondary pharmacology resource illuminates target-adverse drug reaction associations of marketed drugs” (Nat Commun, 2023)
